A short description of data set [1]: Lipophilicity logD7.4 by HPLC method. The settings on record: HPLC retention on ODP-50 4B column (Shodex Asahipak), phosphate buffer pH 7.4. Format: physicochemical. As for the experimental part: The lipophilicity of all synthesized compounds was determined as logD7.4, HPLC value by an HPLC method originally described by Donovan and Pescatore.
The logD7.4HPLC value was determined as previously reported by us utilizing an HPLC method originally described by Donovan and Pescatore.

Data set [2] in a line: Fluorometric NO release assay (Griess assay). Format: physicochemical. The following applies: 24 h, 37 °C, relative to initial molar amount of compound; for thiol-dependent NO release: 2.5 mM cysteine; for spontaneous NO release: absence of cysteine. As for the experimental part: The nitric oxide releasing properties of the nitroester-derivatives 5a–d, 5f, and 6a–d were evaluated using a fluorometric Griess assay in the presence and absence of cysteine to determine thiol-dependent and spontaneous release of nitric oxide (Figure 3).
Nitric oxide release of compounds within 24 h at 37 °C was measured using the fluorometric nitric oxide microplate assay kit ab65327 (Abcam, Cambridge, UK). For measurement of spontaneous release, 1.8 nmol of compounds were incubated in 75 µL Dulbecco’s PBS containing 0.05% v/v residual DMSO and 2.5 mM DTPA (pH = 7.1) for 24 h at 37 °C. Thiol-dependent release was measured accordingly in presence of 2.5 mM cysteine. Two series of nitrate standards were prepared (0.2−1 nmol) in 75 µL incubation buffer, in presence or absence of cysteine, respectively. According to the manufacturer’s instructions, all nitrate content in samples and standards was enzymatically converted into nitrite through incubation with nitrate reductase for 2 h at room temperature, and the resulting nitrite content (total nitric oxide) was determined through reaction with 2,3-diaminonaphthalene followed by measurement of fluorescence intensity at λex/em = 360/450 nm using a microplate reader. Nitrite content in samples was calculated from linear regression of standards and expressed as relative nitric oxide release (%) normalized to the initial molar amount of compound. NONOate served as positive control.
Figure 3 Spontaneous and thiol-dependent NO^• release from NO-COXIBs; measured using fluorometric Griess assay (n = 2); relative release indicates the percentage of soluble nitrogen species (nitrate + nitrite) detected in the incubation buffer after 24 h compared to the initial molar amount of compounds; NO^• release of NONOate (positive control) exceeded the maximum detection limit; data presented as mean ± range.
A general note: The Griess reaction detects nitrite, a stable product of nitric oxide.

In data set [3] the test system is MPC-HIF2α tumor spheroids. Put plainly: Spheroid regrowth assay with external X-ray irradiation. Format: cell-based, mouse. The following applies: X-ray 15 Gy; 10 µM compound added 2 h post irradiation; controls 83%. As for the experimental part:
As a first pilot study, growth responses of MPC-HIF2α spheroids were investigated after two different radiation treatments such as single-dose external beam irradiation (X-ray) and incubation with [^177Lu]LuCl3, respectively. NO-COXIBs were tested at 10 µM for additional effects on radiation treatments against a vehicle-treated control (w/o) and celecoxib (Ce).
The log2-fold change in spheroid diameter is given as a standardized parameter for spheroid growth, which is positive for growing, near zero for stagnating and negative for shrinking spheroids. Furthermore, regrowth probabilities are given as a parameter to compare how many of the overall studied spheroids in one group recovered within 14 days. Radioprotective effects occurred when compounds were added 2 h before irradiation. In this setup, all compounds accelerated the increase in spheroid size during the regrowth phase compared to controls (Figure 5A, upper panel). Regrowth probabilities of 67–100% under NO-COXIB treatment remained however similar to controls (83%). Radiosensitizing effects occurred when compounds were added 2 h post irradiation. In this setup, all compounds decelerated the increase in spheroid size during the regrowth phase compared to controls.
Genetically modified mouse pheochromocytoma (MPC) cells expressing a codon-optimized Epas1 gene (encoding HIF2α) were cultured as three-dimensional tumor spheroids as published elsewhere. External X-ray beam radiation treatment and [^177Lu]LuCl3 radionuclide treatment was performed as reported previously with some modifications. In brief, spheroids were irradiated with a 200 kV photon beam using a Maxishot X-ray system equipped with a Y.TU/320-D03 tube (YXLON, Hamburg, Germany), growth of spheroids (n = 6) with diameters between 300−400 µm was measured in response to one fixed radiation dose, 15 Gy for X-ray treatment, and 0.25 MBq/mL of [^177Lu]LuCl3 for radionuclide treatment corresponding to a cumulative dose of approximately 2 Gy delivered for 6 days. The applied radiation doses were selected based on the half-maximal spheroid control doses (SCD50) as previously determined for MPC HIF2α spheroids by us. Spheroids were considered as regrown at 100 µm increase in diameter compared to treatment start or at a diameter growth rate of 15 µm per day. Results are reported as spheroid regrowth probability (%).
Figure 5 Effects of NO-COXIBs on radiation treatments of MPC-HIF2α tumor spheroids. (A) Growth responses to X-ray treatment with a radiation dose of 15 Gy in combination with 10 µM NO-COXIBs added to the medium at indicated time points before or after irradiation. (B) Growth responses to [^177Lu]LuCl3 treatment with an initial activity concentration of 0.25 MBq/mL in combination with NO-COXIBs; log2 fold changes in diameter indicate the number of diameter doublings compared to treatment start; 14-day regrowth probability indicates the fraction of spheroids able to regrow within 14 days after treatment start; (black arrows) time point or duration of radiation treatment; (w/o) vehicle controls are shown as black lines; (Ce) celecoxib.

Usually chromatographic logD stands for lipophilicity estimated from chromatographic retention.

Structures are written as SMILES.

For the compound `COc1ccc(-c2c(Cl)c(CO[N+](=O)[O-])nn2-c2ccc(S(C)(=O)=O)cc2)cc1` [5d, {4-Chloro-5-(4-methoxyphenyl)-1-[4-(methylsulfonyl)phenyl]-1H-pyrazol-3-yl}methyl nitrate], the chromatographic logD in data set [1] stood at 4.02. Also, in data set [2], the “thiol-dependent NO release” value is 29–53% and the “spontaneous NO release” value is recorded as 10–22%. Moreover, the 14-day regrowth probability in data set [3] was 17%.
Regarding `CCC(=O)NS(=O)(=O)c1ccc(-n2nc(CO[N+](=O)[O-])cc2-c2ccc(OC)cc2)cc1` [6d, {5-(4-Methoxyphenyl)-1-[4-(N-propionylsulfamoyl)phenyl]-1H-pyrazol-3-yl}methyl nitrate], the chromatographic logD in data set [1] is 1.55. Moreover, in data set [2], the “thiol-dependent NO release” value is on record as 65% and the “spontaneous NO release” value is 40%. The 14-day regrowth probability in data set [3] is recorded as 33–40%.
The like results for `CCC(=O)NS(=O)(=O)c1ccc(-n2nc(CO[N+](=O)[O-])c(Cl)c2-c2ccc(C)cc2)cc1` [6a, {4-Chloro-1-[4-(N-propionylsulfamoyl)phenyl]-5-(p-tolyl)-1H-pyrazol-3-yl}methyl nitrate] were, in that order, 2.27, 29–53%, 10–22% and 33–40%.
The like results for `Cc1ccc(-c2c(Cl)c(CO[N+](=O)[O-])nn2-c2ccc(S(C)(=O)=O)cc2)cc1` [5c, {4-Chloro-1-[4-(methylsulfonyl)phenyl]-5-(p-tolyl)-1H-pyrazol-3-yl}methyl nitrate] were, in that order, 4.04, 17%, “no detectable” and 17%.
The like results for `CCC(=O)NS(=O)(=O)c1ccc(-n2nc(CO[N+](=O)[O-])cc2-c2ccc(C)cc2)cc1` [6c, {1-[4-(N-Propionylsulfamoyl)phenyl]-5-(p-tolyl)-1H-pyrazol-3-yl}methyl nitrate] were, in that order, 1.82, 40%, 26% and 33–40%.
In turn, `COc1ccc(-c2cc(CO[N+](=O)[O-])nn2-c2ccc(S(N)(=O)=O)cc2)cc1` [5f, [5-(4-Methoxyphenyl)-1-(4-sulfamoylphenyl)-1H-pyrazol-3-yl]methyl nitrate] returned a chromatographic logD in data set [1] of 3.32. Moreover, in data set [2], the “thiol-dependent NO release” value is 29–53% and the “spontaneous NO release” value is listed as 10–22%. In addition, the 14-day regrowth probability in data set [3] is 17%.
The like results for `CCC(=O)NS(=O)(=O)c1ccc(-n2nc(CO[N+](=O)[O-])c(Cl)c2-c2ccc(OC)cc2)cc1` [6b, {4-Chloro-5-(4-methoxyphenyl)-1-[4-(N-propionylsulfamoyl)phenyl]-1H-pyrazol-3-yl}methyl nitrate] were, in that order, 2.1, 56%, “no detectable” and 0%.

(Values after paper PMC9573605, “Exploring Nitric Oxide (NO)-Releasing Celecoxib Derivatives as Modulators of Radioresponse in Pheochromocytoma Cells” (Molecules, 2022).)
